Reference: patent publication US20230085307A1, “PYRIDAZINONE COMPOUND AND HERBICIDE” (NISSAN CHEMICAL CORPORATION, priority 2019, published 2023)

How the values were obtained:
[1] = system: barnyard grass; experiment: Test Example 3: herbicidal effect by foliage application, Wagner pot (Table 18, symbol H); format: in vivo, barnyard grass (Echinochloa crus-galli); details: for herbicidal effect on H: barnyard grass: amount of applied herbicide 320 g/ha
Summary of the method: (§1)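 Plants were sown in alluvial soil held under 0.1–0.5 cm standing water and grown 14 days in a greenhouse at 25–30 °C. An emulsifiable formulation, water-diluted to the set dose, was then sprayed onto the foliage, and effects were scored three weeks later using previously defined criteria.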

[2] = system: Chinese sprangletop; experiment: Test Example 3: herbicidal effect by foliage application, Wagner pot (Table 18, symbol D); format: in vivo, chinese sprangletop (Leptochloa chinensis); details: for herbicidal effect on D: Chinese sprangletop: amount of applied herbicide 320 g/ha
Summary of the method: as §1

[3] = system: rice flat sedge; experiment: Test Example 3: herbicidal effect by foliage application, Wagner pot (Table 18, symbol E); format: in vivo, rice flat sedge (Cyperus iria); details: for herbicidal effect on E: rice flat sedge: amount of applied herbicide 320 g/ha
Summary of the method: as §1

[4] = system: wild oat; experiment: Test Example 4: herbicidal effect by soil treatment (Table 19, symbol I); format: in vivo, wild oat (Avena fatua); details: for herbicidal effect, I: wild oat: amount of applied herbicide 320 g/ha
Summary of the method: (§2)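 Scoring uses the grading scale of an earlier test, three weeks post-application. Treatment consists of spraying a diluted emulsion formulation across the surface of sterilized diluvial soil in which seeds are buried near 1.5 cm deep; boxes are kept in a greenhouse between 25° C. and 30° C.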

[5] = system: blackgrass; experiment: Test Example 4: herbicidal effect by soil treatment (Table 19, symbol J); format: in vivo, blackgrass (Alopecurus myosuroides); details: for herbicidal effect, J: blackgrass: amount of applied herbicide 320 g/ha
Summary of the method: as §2

[6] = system: Italian ryegrass; experiment: Test Example 4: herbicidal effect by soil treatment (Table 19, symbol K); format: in vivo, Italian ryegrass (Lolium multiflorum); details: for herbicidal effect, K: Italian ryegrass: amount of applied herbicide 320 g/ha
Summary of the method: as §2

[7] = system: windgrass; experiment: Test Example 4: herbicidal effect by soil treatment (Table 19, symbol L); format: in vivo, windgrass (Apera spica-venti); details: for herbicidal effect, L: windgrass: amount of applied herbicide 320 g/ha
Summary of the method: as §2

[8] = system: chickweed; experiment: Test Example 4: herbicidal effect by soil treatment (Table 19, symbol P); format: in vivo, common chickweed (Stellaria media); details: for herbicidal effect, P: chickweed: amount of applied herbicide 320 g/ha
Summary of the method: as §2

[9] = system: persian speedwell; experiment: Test Example 4: herbicidal effect by soil treatment (Table 19, symbol R); format: in vivo, Persian speedwell (Veronica persica); details: for herbicidal effect, R: persian speedwell: amount of applied herbicide 320 g/ha
Summary of the method: as §2

[10] = system: southern crabgrass; experiment: Test Example 5: herbicidal effect by foliage application, plastic box (Table 20, symbol F); format: in vivo, southern crabgrass (Digitaria ciliaris); details: foliage application, 320 g/ha, 3 weeks after application
Summary of the method: (§3)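 Post-emergence foliar test in sterilized diluvial soil. Compound applied as water-diluted emulsion at a predetermined rate to 14-day-old plants; evaluation at three weeks.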

[11] = system: green foxtail; experiment: Test Example 5: herbicidal effect by foliage application, plastic box (Table 20, symbol G); format: in vivo, green foxtail (Setaria viridis); details: foliage application, 320 g/ha, 3 weeks after application
Summary of the method: as §3

[12] = system: barnyard grass; experiment: Test Example 5: herbicidal effect by foliage application, plastic box (Table 20, symbol H); format: in vivo, barnyard grass (Echinochloa crus-galli); details: foliage application, 320 g/ha, 3 weeks after application
Summary of the method: as §3

[13] = system: wild oat; experiment: Test Example 5: herbicidal effect by foliage application, plastic box (Table 20, symbol I); format: in vivo, wild oat (Avena fatua); details: foliage application, 320 g/ha, 3 weeks after application
Summary of the method: as §3

[14] = system: blackgrass; experiment: Test Example 5: herbicidal effect by foliage application, plastic box (Table 20, symbol J); format: in vivo, blackgrass (Alopecurus myosuroides); details: foliage application, 320 g/ha, 3 weeks after application
Summary of the method: as §3

[15] = system: Italian ryegrass; experiment: Test Example 5: herbicidal effect by foliage application, plastic box (Table 20, symbol K); format: in vivo, Italian ryegrass (Lolium multiflorum); details: foliage application, 320 g/ha, 3 weeks after application
Summary of the method: as §3

[16] = system: windgrass; experiment: Test Example 5: herbicidal effect by foliage application, plastic box (Table 20, symbol L); format: in vivo, windgrass (Apera spica-venti); details: foliage application, 320 g/ha, 3 weeks after application
Summary of the method: as §3

[17] = system: velvetleaf; experiment: Test Example 5: herbicidal effect by foliage application, plastic box (Table 20, symbol M); format: in vivo, velvetleaf (Abutilon theophrasti); details: foliage application, 320 g/ha, 3 weeks after application
Summary of the method: as §3

[18] = system: lambsquarters; experiment: Test Example 5: herbicidal effect by foliage application, plastic box (Table 20, symbol O); format: in vivo, lambsquarters (Chenopodium album); details: foliage application, 320 g/ha, 3 weeks after application
Summary of the method: as §3

[19] = system: persian speedwell; experiment: Test Example 5: herbicidal effect by foliage application, plastic box (Table 20, symbol R); format: in vivo, Persian speedwell (Veronica persica); details: foliage application, 320 g/ha, 3 weeks after application
Summary of the method: as §3

[20] = system: southern crabgrass; experiment: Test Example 4: herbicidal effect by soil treatment (Table 19, symbol F); format: in vivo, southern crabgrass (Digitaria ciliaris); details: amount of applied herbicide 320 g/ha
Summary of the method: as §2

[21] = system: green foxtail; experiment: Test Example 4: herbicidal effect by soil treatment (Table 19, symbol G); format: in vivo, green foxtail (Setaria viridis); details: amount of applied herbicide 320 g/ha
Summary of the method: as §2

[22] = system: barnyard grass; experiment: Test Example 4: herbicidal effect by soil treatment (Table 19, symbol H); format: in vivo, barnyard grass (Echinochloa crus-galli); details: amount of applied herbicide 320 g/ha
Summary of the method: as §2

[23] = system: velvetleaf; experiment: Test Example 4: herbicidal effect by soil treatment (Table 19, symbol M); format: in vivo, velvetleaf (Abutilon theophrasti); details: amount of applied herbicide 320 g/ha
Summary of the method: as §2

[24] = system: redroot pigweed; experiment: Test Example 4: herbicidal effect by soil treatment (Table 19, symbol N); format: in vivo, redroot pigweed (Amaranthus retroflexus); details: amount of applied herbicide 320 g/ha
Summary of the method: as §2

[25] = system: lambsquarters; experiment: Test Example 4: herbicidal effect by soil treatment (Table 19, symbol O); format: in vivo, lambsquarters (Chenopodium album); details: amount of applied herbicide 320 g/ha
Summary of the method: as §2

| SMILES | herbicidal effect on H: barnyard grass [1] | herbicidal effect on D: Chinese sprangletop [2] | herbicidal effect on E: rice flat sedge [3] | herbicidal effect, F: southern crabgrass [20] | herbicidal effect, G: green foxtail [21] | herbicidal effect, H: barnyard grass [22] | herbicidal effect, I: wild oat [4] | herbicidal effect, J: blackgrass [5] | herbicidal effect, K: Italian ryegrass [6] | herbicidal effect, L: windgrass [7] | herbicidal effect, M: velvetleaf [23] | herbicidal effect, N: redroot pigweed [24] | herbicidal effect, O: lambsquarters [25] | herbicidal effect, P: chickweed [8] | herbicidal effect, R: persian speedwell [9] | other results |
| --- | --- | --- | --- | --- | --- | --- | --- | --- | --- | --- | --- | --- | --- | --- | --- | --- |
| COc1nn(C)c(=O)c(-c2c(-c3cc4ccccc4s3)sc3ccccc23)c1O [1-196] |  |  |  |  |  |  |  |  |  |  |  |  |  |  |  | herbicidal effect on H (barnyard grass), rating 0-5 ([1]; 320 g/ha): 3 (Herbicidal rate of 40% or more and less than 70%); herbicidal effect on D (Chinese sprangletop), rating 0-5 ([2]; 320 g/ha): 0 (Herbicidal rate of 5% or less (almost no effect)); herbicidal effect on E (rice flat sedge), rating 0-5 ([3]; 320 g/ha): 5 (Herbicidal rate of 90% or more (almost completely withered)); I: wild oat, herbicidal effect rating ([4]; AAH 320 g/ha): 0 (Herbicidal rate of 5% or less (almost no effect)); J: blackgrass, herbicidal effect rating ([5]; AAH 320 g/ha): 0 (Herbicidal rate of 5% or less (almost no effect)); K: Italian ryegrass, herbicidal effect rating ([6]; AAH 320 g/ha): 4 (Herbicidal rate of 70% or more and less than 90%); L: windgrass, herbicidal effect rating ([7]; AAH 320 g/ha): 0 (Herbicidal rate of 5% or less (almost no effect)); P: chickweed, herbicidal effect rating ([8]; AAH 320 g/ha): 5 (Herbicidal rate of 90% or more (almost completely withered)); R: persian speedwell, herbicidal effect rating ([9]; AAH 320 g/ha): 5 (Herbicidal rate of 90% or more (almost completely withered)); effect on southern crabgrass (F) [10]: 0 (Herbicidal rate of 5% or less (almost no effect)); effect on green foxtail (G) [11]: 0 (Herbicidal rate of 5% or less (almost no effect)); effect on barnyard grass (H) [12]: 0 (Herbicidal rate of 5% or less (almost no effect)); effect on wild oat (I) [13]: 0 (Herbicidal rate of 5% or less (almost no effect)); effect on blackgrass (J) [14]: 0 (Herbicidal rate of 5% or less (almost no effect)); effect on Italian ryegrass (K) [15]: 3 (Herbicidal rate of 40% or more and less than 70%); effect on windgrass (L) [16]: 0 (Herbicidal rate of 5% or less (almost no effect)); effect on velvetleaf (M) [17]: 3 (Herbicidal rate of 40% or more and less than 70%); effect on lambsquarters (O) [18]: 5 (Herbicidal rate of 90% or more (almost completely withered)); effect on persian speedwell (R) [19]: 5 (Herbicidal rate of 90% or more (almost completely withered)) |
| Cc1nn(C)c(=O)c(-c2c(-c3ccc(C(F)(F)F)cc3F)sc3ccc(F)cc23)c1O [2-354] | 5 (Herbicidal rate of 90% or more (almost completely withered)) | 5 (Herbicidal rate of 90% or more (almost completely withered)) | 5 (Herbicidal rate of 90% or more (almost completely withered)) | 0 (Herbicidal rate of 5% or less (almost no effect)) | 1 (Herbicidal rate of 5% or more and less than 20%) | 0 (Herbicidal rate of 5% or less (almost no effect)) | 0 (Herbicidal rate of 5% or less (almost no effect)) | 0 (Herbicidal rate of 5% or less (almost no effect)) | 0 (Herbicidal rate of 5% or less (almost no effect)) | 0 (Herbicidal rate of 5% or less (almost no effect)) | 0 (Herbicidal rate of 5% or less (almost no effect)) | 3 (Herbicidal rate of 40% or more and less than 70%) | 3 (Herbicidal rate of 40% or more and less than 70%) | 1 (Herbicidal rate of 5% or more and less than 20%) | 4 (Herbicidal rate of 70% or more and less than 90%) |  |
| COc1cccc(-c2sc3ccc(F)cc3c2-c2c(O)c(C)nn(C)c2=O)c1F [2-362] | 3 (Herbicidal rate of 40% or more and less than 70%) | 0 (Herbicidal rate of 5% or less (almost no effect)) | 3 (Herbicidal rate of 40% or more and less than 70%) | 0 (Herbicidal rate of 5% or less (almost no effect)) | 0 (Herbicidal rate of 5% or less (almost no effect)) | 0 (Herbicidal rate of 5% or less (almost no effect)) | 0 (Herbicidal rate of 5% or less (almost no effect)) | 0 (Herbicidal rate of 5% or less (almost no effect)) | 2 (Herbicidal rate of 20% or more and less than 40%) | 0 (Herbicidal rate of 5% or less (almost no effect)) | 0 (Herbicidal rate of 5% or less (almost no effect)) | 1 (Herbicidal rate of 5% or more and less than 20%) | 3 (Herbicidal rate of 40% or more and less than 70%) | 0 (Herbicidal rate of 5% or less (almost no effect)) | 0 (Herbicidal rate of 5% or less (almost no effect)) |  |
| COc1ccc(-c2sc3ccc(F)cc3c2-c2c(O)c(C)nn(C)c2=O)c(F)c1 [2-364] | 4 (Herbicidal rate of 70% or more and less than 90%) | 4 (Herbicidal rate of 70% or more and less than 90%) | 5 (Herbicidal rate of 90% or more (almost completely withered)) | 0 (Herbicidal rate of 5% or less (almost no effect)) | 0 (Herbicidal rate of 5% or less (almost no effect)) | 0 (Herbicidal rate of 5% or less (almost no effect)) | 0 (Herbicidal rate of 5% or less (almost no effect)) | 0 (Herbicidal rate of 5% or less (almost no effect)) | 0 (Herbicidal rate of 5% or less (almost no effect)) | 0 (Herbicidal rate of 5% or less (almost no effect)) | 0 (Herbicidal rate of 5% or less (almost no effect)) | 1 (Herbicidal rate of 5% or more and less than 20%) | 4 (Herbicidal rate of 70% or more and less than 90%) | 0 (Herbicidal rate of 5% or less (almost no effect)) | 0 (Herbicidal rate of 5% or less (almost no effect)) |  |
